Reference: patent US20130040331A1, “LABEL-FREE METHODS RELATED TO hERG POTASSIUM ION [sequence]” (CORNING INCORPORATED, priority 2009, published 2013)
“Also recorded” adds a separate entry of the source. Like-named read-outs stand apart in the source and are kept apart here.

Columns and labels:
[1] = tested on: mallotoxin DMR signal in HT29 cells; experiment: DMR modulation index against the mallotoxin DMR signal in HT29 cells; assay type: cell-based, human
From the text: (§1) A “molecule modulation index” or like terms is an index to display the ability of the molecule to modulate the biosensor output signals of the panels of markers acting on the panel of cells. The modulation index is generated by normalizing a specific biosensor output signal parameter of a response of a cell upon stimulation with a marker in the presence of a molecule against that in the absence of any molecule.
(§2) Epic® wavelength interrogation system (Corning Inc., Corning, N.Y.) was used for whole cell sensing. This system consists of a temperature-control unit, an optical detection unit, and an on-board liquid handling unit with robotics. The detection unit is centered on integrated fiber optics, and enables kinetic measures of cellular responses with a time interval of ˜15 sec.
(§3) Cells were plated in 384-well Epic® cell culture treated plate (Corning Cat#5040) 16-20 hours before assay (15000 cells/well for HEK293 and HEK-hERG cells, 30000 cells/well for HT29 cells). For both HEK-hERG and its parental HEK293 cells, each well was coated with 10 μl 5 μg/ml fibronectin. One hour before assay, cells were washed twice on a BioTek ELx405 Select washer with Hank's Balanced Salt Solution (HBSS) containing 20 mM Hepes. Cells were incubated in 40 μl/well HBSS at 28° C. inside the Epic system for one hour. For each assay, a 2-min baseline was initiated, followed by addition of 10 μl compound solutions (5×) and the cell responses were recorded continuously for one hour.
(§4) All studies were carried out at a controlled temperature (28° C.). At least two independent sets of experiments, each with at least three replicates, were performed. […] All dose-dependent responses were analyzed using non-linear regression method with the GraphPad Prism 5.
(§5) The DMR modulation index was generated by normalizing the mallotoxin DMR signal in either cell line in the presence of compound […] to its corresponding DMR signal in the absence of the compound, and the percentage of modulation was based on the amplitude of the mallotoxin DMR signal at a specific time (−18 min after stimulation for HEK-hERG cells, and ˜50 min after stimulation for HT29 cells, respectively). Mallotoxin is known to display polypharmacology. It is also known to be a protein kinase C (PKC) inhibitor; and PKC is a downstream signaling component of hERG activation. Thus, it would be difficult or almost impossible to assign the mode(s) of action of mallotoxin to be a hERG activator when either cell line is individually assayed with the label-free biosensor (i.e., Epic® system). […] However, combining the primary DMR profiles of a compound across the three cell lines tested with the modulation index of the compound against the mallotoxin responses in both HT29 and […] cells can correctly identify whether the compound is a hERG activator or not. The results shown in FIG. 1 indicate that indeed mallotoxin is a hERG activator; and the activation of hERG can result in detectable biosensor responses in the two hERG expressing cell lines.

hERG channel [2] = molecular target: T1, hERG channel (Homo sapiens, UniProt Q12809); experiment: Rb+ flux assay using HEK-hERG cells; conditions: for effect on hERG ion flux (Rb+ flux, FIG. 6): HEK-hERG cells, overall statement, KCl and concentration not specified
T1 sequence (Q12809 whole entry): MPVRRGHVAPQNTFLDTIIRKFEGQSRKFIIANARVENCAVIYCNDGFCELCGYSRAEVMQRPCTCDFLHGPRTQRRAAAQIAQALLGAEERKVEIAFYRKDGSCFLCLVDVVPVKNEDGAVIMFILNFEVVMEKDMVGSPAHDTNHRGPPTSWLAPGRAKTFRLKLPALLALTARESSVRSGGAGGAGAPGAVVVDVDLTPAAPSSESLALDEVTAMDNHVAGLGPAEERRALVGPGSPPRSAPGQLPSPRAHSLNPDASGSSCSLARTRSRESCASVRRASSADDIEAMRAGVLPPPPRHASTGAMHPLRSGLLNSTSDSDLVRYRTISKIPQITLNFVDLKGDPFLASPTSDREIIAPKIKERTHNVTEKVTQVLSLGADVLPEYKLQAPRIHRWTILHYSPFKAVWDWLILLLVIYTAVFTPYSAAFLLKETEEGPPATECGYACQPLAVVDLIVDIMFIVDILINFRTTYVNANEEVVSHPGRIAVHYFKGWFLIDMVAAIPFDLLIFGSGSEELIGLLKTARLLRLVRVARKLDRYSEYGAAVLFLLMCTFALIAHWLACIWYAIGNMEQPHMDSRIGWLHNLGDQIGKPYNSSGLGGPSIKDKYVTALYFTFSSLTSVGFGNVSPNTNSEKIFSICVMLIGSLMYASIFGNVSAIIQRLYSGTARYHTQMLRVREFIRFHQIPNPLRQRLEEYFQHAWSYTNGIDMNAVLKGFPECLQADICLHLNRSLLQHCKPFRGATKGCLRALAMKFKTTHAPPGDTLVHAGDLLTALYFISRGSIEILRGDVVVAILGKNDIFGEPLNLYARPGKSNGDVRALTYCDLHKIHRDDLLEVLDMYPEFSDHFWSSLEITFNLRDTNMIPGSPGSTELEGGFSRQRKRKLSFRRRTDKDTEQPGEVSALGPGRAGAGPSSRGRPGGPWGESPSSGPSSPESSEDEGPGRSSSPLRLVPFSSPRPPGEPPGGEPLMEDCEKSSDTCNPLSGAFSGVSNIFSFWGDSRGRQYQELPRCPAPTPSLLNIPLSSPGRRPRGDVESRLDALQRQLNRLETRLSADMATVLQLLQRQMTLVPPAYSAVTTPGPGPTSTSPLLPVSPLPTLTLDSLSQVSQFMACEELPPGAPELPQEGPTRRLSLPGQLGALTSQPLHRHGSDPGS
Protocol: Briefly, 50,000 cells per well were plated in 96-well tissue culture treated plates 20 hours before assay. In the next day, cells were incubated with complete cell culture medium containing 5 mM RbCl for 3 hours at 37° C. with 5% CO2. Then compounds (10×) diluted in HBSS were added into the cell culture medium and cells were incubated at 37° C. with 5% CO2 for another hour. Cells were washed twice with Rb^+ free cell culture medium and incubated with 180 μl/well of cell culture medium containing different concentration of KCl for exactly 10 minutes. The supernatant from each well was transferred to a new 96 well plate immediately. Cells were lysed with 180 μl/well 0.5% Triton-100 in HBSS. The Rb^+ concentration of each sample was determined by ICR8000 (Aurora Biomed Inc.).

[3] = tested on: hERG channel or hERG-associated signaling complex; experiment: Classification of hERG modulators by label-free biosensor profiles across three cell lines plus mallotoxin modulation index; assay type: cell-based, human
From the text: The traditional hERG ion channel assay involves assaying ion flux such as Rb^+ flux using ion absorption assays, or assaying hERG currents directly using patch clamping methods. Traditionally, a molecule which causes increase in Rb^+ flux and/or hERG currents is referred to a hERG activator, while a molecule which inhibits Rb^+ flux and/or hERG currents is referred to a hERG inhibitor. […] These hERG activators may or may not result in detectable biosensor signals in cells, using label-free biosensor cellular assays. A hERG activator that results in a detectable biosensor signal in a hERG expressing cell via hERG or hERG signaling complex is also referred to a label-free biosensor hERG activator.
Disclosed are methods of classifying a molecule for modulating hERG activity, comprising the steps: a. incubating a molecule individually with at least three different types of cells consisting of a native cell endogenously expressing hERG, an engineered cell stably expressing hERG and its parental cell without expressing hERG, and b. monitoring the molecule induced cellular response on each cell type with a label-free biosensor cellular assay,
Also disclosed are methods, further comprising as steps c) incubating a label-free biosensor hERG activator with each cell type in the presence of the molecule, d. monitoring the label-free biosensor hERG activator induced cellular response on each cell type in the presence of the molecule, e. generating a biosensor modulation index of the molecule against the label-free biosensor hERG activator induced biosensor signals in the two hERG expressing cell types.
as §5

HEK-hERG cells = experiment: Label-free RWG biosensor (Epic) DMR assay, agonism mode, HEK-hERG cells stably expressing hERG; assay type: cell-based, human
Protocol: as §2, §3, §4
(§6) Three different types of cells: human colon cancerous cell line HT-29, HEK293 and its engineered HEK-hERG cell lines were used. HT-29 is known to endogenously express hERG channels. HEK293 is a native cell line without endogenously expressed hERG channels, while HEK-hERG is an engineered HEK293 cells having stably expressed hERG channels. Mallotoxin, a newly discovered hERG activator, was used to activate hERG channels at or near physiological conditions (i.e., 1×HBSS buffered conditions).

[4] = tested on: mallotoxin DMR signal in HEK-hERG cells; assay type: cell-based, human
From the text: as §1, §2, §3, §4, §5

HT29 cells = experiment: Label-free RWG biosensor (Epic) DMR assay, agonism mode, HT29 cells endogenously expressing hERG; assay type: cell-based, human
Protocol: as §2, §3, §4, §6

HEK293 cells = experiment: Label-free RWG biosensor (Epic) DMR assay, agonism mode, native HEK293 cells without hERG; assay type: cell-based, human
Protocol: as §2, §3
All studies were carried out at a controlled temperature (28° C.). At least two independent sets of experiments, each with at least three replicates, were performed. […] All dose-dependent responses were analyzed using non-linear regression method with the GraphPad Prism 5. […]

PKC = experiment: Effect on PKC activity (data not shown)
hERG channel [5] = molecular target: T1, hERG channel; experiment: Automated patch clamp recording of hERG current using IonWorks, CHO-hERG cells
Protocol: CHO—K1 cells stably expressing hERG channel (CHO-hERG) were cultured in T175 flask till about 70% confluent. Cells were washed twice with PBS, then 2.5 ml 0.25% Trypsin/EDTA was mixed with 2.5 ml PBS and added to the T175 flask. Cells were incubated about 2 minutes with the diluted Trypsin/EDTA solution at 37° C., then were continuously incubated about 3 minutes at room temperature. 20 ml fresh medium were added to suspend the cells and transfer to a 50 ml tube. Cells were centrifuged down at 750 rpm for 5 minutes. The extra medium was removed and cells were resuspended in 6 ml External Buffer (137 mM NaCl, 4 mM KCl, 1.8 mM CaCl2, 1 mM MgCl2, 10 mM HEPES, 10 mM glucose, pH 7.4). Then cells were centrifuged again at 450 rpm for another 5 minutes. Finally cells were resuspended in 4 ml the External Buffer, cell number was counted using a hemacytometer. Cell suspension was diluted to 2.5×10^6 cells/ml with the External Buffer. 4 ml of the resuspended cells were added to the cell reservoir in IonWorks. The Internal solution used contains: 40 mM KCl, 100 mM K-Gluconate, 3.2 mM MgCl2, 2 mM CaCl2, 5 mM HEPES, pH 7.25 (adjusted with KOH). 5 mg Amphotericin B from 200 ul DMSO stock was added to 65 ml the Internal solution and mixed well to achieve electrical access to the interior of cells on the patch plate.
Compounds were prepared from 10 mM DMSO stock and diluted in the External Buffer to make 3× compound solution. […] of the 3× compound solution was transferred to a 384 well plate in Row A, B, C and D. PD11857 (Sigma-Aldrich), a reported hERG channel activator was used as activator positive control (final concentration 30 and 50 μM). hERG blocker dofetilide was used as blocker positive control (final concentration 100 nM). The final DMSO concentration in the IonWorks Quattro PatchPlate PPC plate (Cat#9000-0902, Molecular Devices) was 0.5%. Final compound concentration was 50 μM. Each compound was added to four wells of one PPC plate.
hERG currents were recorded on IonWorks Quattro (Molecular Devices). To record hERG current, the cells were clamped at −80 mV initially, then followed by a 5-s depolarization at +40 mV to activate the channels. Tail currents were measured during an ensuing return to −35 mV. Data analysis were done using IonWorks Quttro® System Software version 2.0.4.4. Data from wells with seal resistance less than 50 MΩ or hERG tail currents less than 0.1 nA were filtered out. […] Inhibitor hits were selected if hERG tail currents ratio (post/pre-compound) is less than mean-2SD of the average DMSO control.
To record hERG current, the cells were clamped at −80 mV initially, then followed by a 5-s depolarization at +40 mV to activate the channels (phase a in FIG. 10A). Tail currents were measured during an ensuing return to −35 mV for 2 seconds (phase b in FIG. 10A). Final holding potential at −70 mV (phase c in FIG. 10B).

phosphodiesterase 4 = experiment: Effect on phosphodiesterase 4 activity (data not shown)
[6] = compound at 10 micromolar, mallotoxin 16 micromolar
[7] = 16 μM mallotoxin, blockers dose-dependent (30 μM, 30 min pretreatment in FIG. 8A)

For `N#CC(C#N)=Cc1ccc([N+](=O)[O-])c(O)c1` [AG-126], the “modulation of the mallotoxin DMR signal in HT29 cells” value (from here on “modulation … in HT29 cells”) [1, 6] was “only partially attenuated”, the “effect on hERG ion flux (Rb+ flux, FIG. 6)” value (“effect on hERG ion flux” for short) (hERG channel [2]) was “little or no impact; also recorded: non-effector in hERG ion flux” and the “hERG pathway activity class by label-free biosensor” value [3] was “hERG pathway activator, specifically in the endogenous hERG channel complex in HT29”.

`O=C(Nc1cc(C(F)(F)F)ccc1O)Nc1cc(C(F)(F)F)ccc1O` [NS1643] was tested, and the “DMR signal in HEK-hERG cells” value (HEK-hERG cells; concentration not given, data not shown) was “induced a detectable DMR signal”.

In the case of `COc1cc(N)c(Cl)cc1C(=O)NC1CCN(CCCOc2ccc(F)cc2)CC1OC` (stereo not shown) [cisapride], the “effect of pretreatment on the mallotoxin DMR signal in HEK-hERG cells” value (from here on “effect of pretreatment”) [4] is reported as “dose-dependent suppression”.

For `O=C(O)c1cc(-c2ccc(F)cc2F)ccc1O` [diflunisal], the “modulation … in HT29 cells” value [1, 6] was “completely desensitized”, the “score of modulation index in coordination, HEK-hERG coordinate” value ([4]; human) was 1 and the “Rb+ signal in HEK-hERG cells” value (hERG channel [2]; 5 mM KCl, compound at 10 or 50 μM) was “only at 50 μM triggered a detectable increase”. For the same compound, the “effect on hERG ion flux” value (hERG channel [2]) was “weak hERG ion flux activator” and the “hERG pathway activity class by label-free biosensor” value [3] was “hERG pathway activator”.

For `O=C(O)c1cccnc1Nc1cccc(C(F)(F)F)c1` [niflumic acid], the “hERG pathway activity class by label-free biosensor” value [3] was “hERG pathway activator”.

In the case of `CC(C)(O)[C@H]1O[C@H]2CC[C@@]3(C)[C@@](O)(CC[C@H]4Cc5c([nH]c6ccccc56)[C@@]43C)C2=CC1=O` [paxilline], the “effect of pretreatment” value [4, 7] is reported as “no effect”.

`C=C(C)[C@H]1O[C@H]2CC[C@@]3(C)[C@@](O)(CC[C@H]4[C@@H]5OC(C)(C)[C@H]6C[C@@H]7C(=C)Cc8c(Cl)cc9[nH]c(c5c9c8[C@@]76O)[C@@]43C)[C@@]23O[C@H]3[C@H]1O` [penitrem A] was tested, and the “effect of pretreatment” value [4, 7] was “no effect”.

In the case of `O=C1NCCN1CCN1CCC(c2cn(-c3ccc(F)cc3)c3ccc(Cl)cc23)CC1` [sertindole], the “modulation … in HT29 cells” value ([1]; dose dependent, concentrations not given) is reported as “attenuated”, the “DMR signal in HT29 cells” value (HT29 cells) is reported as “did not trigger any DMR signals” and the “DMR signal in HEK293 cells” value (HEK293 cells) is reported as “did not trigger any DMR signals”. For the same compound, the “DMR signal in HEK-hERG cells” value (HEK-hERG cells) was “did not trigger any DMR signals”.

With `N#CC(C#N)=C(N)/C(C#N)=C/c1cc(O)c(O)c(O)c1` [tyrphostin 51] the “modulation … in HT29 cells” value [1, 6] was “only partially attenuated”, the “effect on hERG ion flux” value (hERG channel [2]) was “little impact; also recorded: weak hERG ion flux activator” and the “hERG pathway activity class by label-free biosensor” value [3] was “hERG pathway activator”. For the same compound, the “effect on activity of PKC” value (PKC) was “suppresses the activity”, the “effect on hERG tail current” value (hERG channel [5]; 50 μM, tail current at return to −35 mV) was “significantly suppressed” and the “effect on hERG current” value (hERG channel [5]; final compound concentration 50 μM) was “hERG current inhibitor”. The “DMR signal in HEK-hERG cells” value (HEK-hERG cells; compound at 10 μM) was “robust but different DMR signals” and the “effect on activity of phosphodiesterase 4” value (phosphodiesterase 4) was “suppresses the activity”.
